Test systems include A498 renal; DU-145 prostate; M14 melanoma; MALME-3M melanoma; MDA-MB-231 breast; SNB-19 CNS; HCT-116 colon; HL-60(TB) leukemia; KM12 colon; DLD-1 colon; DMS 114 small cell lung; DMS 273 small cell lung; HOP-18 NSCLC; KM20L2 colon; M19-MEL melanoma; P388/ADR leukemia; SN12K1 renal; SNB-78 CNS.
Holding throughout (experiment): NCI tumour cell line growth inhibition, 48 h

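How tested: cells in 96-well plates exposed to compound for 48 hours at five concentrations. GI50 marks 50% less growth. TGI is the concentration that stops growth completely.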

As for `COC1OC2COC(c3ccccc3)OC2C(O)C1OC(=S)c1ccccc1` (configuration not stated), the TGI with A498 renal was above 100 µM; in the experiment with DU-145 prostate, above 100 µM; in the experiment with M14 melanoma, above 100 µM; with MALME-3M melanoma, 71.6 µM; in the experiment with MDA-MB-231 breast, above 100 µM; with SNB-19 CNS, above 100 µM.

Regarding `OC(C#CCN1CCCC1)(c1ccccc1)c1ccccc1Cl` (configuration not stated), the TGI is 66.8 µM in the experiment with A498 renal; above 100 µM with DU-145 prostate; 85.2 µM in the experiment with HCT-116 colon; 68.3 µM in the experiment with HL-60(TB) leukemia; above 100 µM in the experiment on KM12 colon; above 100 µM in the experiment on MDA-MB-231 breast.

Turning to `O=C1N(Cc2ccccc2)C2CSCC2N1Cc1ccccc1` (configuration not stated), the TGI with DU-145 prostate was above 100 µM; in the experiment with HCT-116 colon it was above 100 µM; with KM12 colon it was above 100 µM; in the experiment with M14 melanoma it was 33.7 µM; in the experiment with MALME-3M melanoma it was 46.3 µM; in the experiment with MDA-MB-231 breast, 68.3 µM. In the experiment with SNB-19 CNS, this compound gave a TGI above 100 µM.

Regarding `COc1ccc2oc(=N)c(C(=O)Nc3ccccc3)cc2c1`, the TGI in the experiment on A498 renal was 39.8 µM; in the experiment with DU-145 prostate, above 100 µM; in the experiment on HCT-116 colon, above 100 µM; with KM12 colon it was above 100 µM; with M14 melanoma it was above 100 µM; in the experiment with MALME-3M melanoma it was 53.2 µM. Further, the TGI in the experiment on MDA-MB-231 breast and in the experiment with SNB-19 CNS was above 100 µM each time.

Regarding `C/C1=C\[C@H](C)C[C@H](C)OC(=O)[C@H](C)NC(=O)[C@@H](Cc2ccc(O)c(Br)c2)N(C)C(=O)[C@H](C)NC(=O)[C@@H](C)C1`, the TGI in the experiment on A498 renal is 0.051 µM; with DU-145 prostate, above 25 µM; in the experiment with HCT-116 colon, above 12.2 µM; in the experiment on KM12 colon, above 25 µM; in the experiment with M14 melanoma it was above 25 µM; in the experiment with MALME-3M melanoma, 2.32 µM. The TGI with MDA-MB-231 breast came to 0.518 µM; with SNB-19 CNS, 9.32 µM.

Consider `C=CC1(C)CC(=O)C2(O)C(C)(O1)C(OC(C)=O)C(O)C1C(C)(C)CCC(O)C12C` (configuration not stated), for which the TGI is above 150 µM with A498 renal; above 150 µM in the experiment with DLD-1 colon; above 108 µM with DMS 114 small cell lung; above 150 µM in the experiment on DMS 273 small cell lung; above 150 µM with HCT-116 colon; above 137 µM in the experiment on HL-60(TB) leukemia. Moreover, the TGI in the experiment with HOP-18 NSCLC was above 138 µM; in the experiment with KM12 colon, above 150 µM; in the experiment on KM20L2 colon, above 150 µM; with M19-MEL melanoma, above 127 µM; in the experiment on MALME-3M melanoma, above 150 µM; in the experiment on P388/ADR leukemia, above 84.4 µM. Moreover, the TGI in the experiment with SN12K1 renal, with SNB-19 CNS and in the experiment with SNB-78 CNS was above 150 µM in each case. Moreover, the GI50 was above 71.6 µM in the experiment on DMS 114 small cell lung and 2.37 µM in the experiment on KM12 colon.

Source of the values: PubChem BioAssay (NCI).
